Assay results from patent US20100273694A1, “SURFACTANT COMPOSITION METHOD FOR PRODUCTION THEREOF AND COSMETIC COMPRISING SAID COMPOSITION” (EIFFAGE TRAVAUX PUBLICS, priority 2004, published 2010).

Test: Measurement of surface tension and critical micellar concentrations (rising drop tensiometer)
Type: physicochemical
Conditions: rising drop method; for CMC: critical micellar concentration; for γcmc: surface tension at the CMC
Description: The tensiometric measurements were carried out with a drop tensiometer operating by the method of the rising drop ([…] tensiometer, I.T. CONCEPT).

CMC | γcmc [mN/m] | Compound
8.10^−4 M | 37.2 | octadecyl betaine mesylate [Esters C18:0]
0.00014 M | 36.0 | betainylaminooctadecane mesylate [Amides C18:0]
0.00012 M | 36.2 | betainylaminooctadecenyl mesylate [Amides C18:1]
0.008 M | 30.0 | CCCCCCCCCCCCOS(=O)(=O)[O-].[Na+] [SDS (C12), sodium dodecyl sulphate, reference compound]
1.10^−4 M | 36.6 | 9-octadecenyl betaine mesylate [Esters C18:1]
